Source: ChEMBL document CHEMBL4017512 (J Med Chem, 2017)

Tests used:
[1] = tested on: L1210; test: Antiproliferative activity against mouse L1210 cells after 72 hrs by phosphatase assay; format: functional, cell-based; settings: L1210, 72 h
[2] = tested on: HCT-116; test: Antiproliferative activity against human HCT116 cells after 72 hrs by phosphatase assay; format: functional, cell-based; settings: HCT-116, 72 h
[3] = Cytotoxicity against human HCT116/VM46 cells assessed as reduction in cell viability after 72 hrs by phosphatase assay; format: cell-based; settings: HCT-116/VM46, 72 h

`CC[C@]1(NC(=O)c2cc3ccccc3s2)C[C@H]2CN(CCc3c([nH]c4ccccc34)[C@@](C(=O)OC)(c3cc4c(cc3OC)N(C)[C@H]3[C@@](O)(C(=O)OC)[C@H](OC(C)=O)[C@]5(CC)C=CCN6CC[C@]43[C@@H]65)C2)C1` showed an IC50 [1] of 3.1 nM, an IC50 [2] of 1.9 nM and an IC50 [3] of 9.2 nM.

`CC[C@]1(NC(=O)c2ccc(NC(=O)OC(C)(C)C)c(C)c2)C[C@H]2CN(CCc3c([nH]c4ccccc34)[C@@](C(=O)OC)(c3cc4c(cc3OC)N(C)[C@H]3[C@@](O)(C(=O)OC)[C@H](OC(C)=O)[C@]5(CC)C=CCN6CC[C@]43[C@@H]65)C2)C1` gave an IC50 [1] of 5.6 nM, an IC50 [2] of 5.8 nM and an IC50 [3] of 30 nM.

Work on `CC[C@]1(NC(=O)c2ccc3ncoc3c2)C[C@H]2CN(CCc3c([nH]c4ccccc34)[C@@](C(=O)OC)(c3cc4c(cc3OC)N(C)[C@H]3[C@@](O)(C(=O)OC)[C@H](OC(C)=O)[C@]5(CC)C=CCN6CC[C@]43[C@@H]65)C2)C1` yielded an IC50 [1] of 0.6 nM, an IC50 [2] of 0.6 nM and an IC50 [3] of 30 nM.

In the case of `CC[C@]1(NC(=O)c2ccc3occc3c2)C[C@H]2CN(CCc3c([nH]c4ccccc34)[C@@](C(=O)OC)(c3cc4c(cc3OC)N(C)[C@H]3[C@@](O)(C(=O)OC)[C@H](OC(C)=O)[C@]5(CC)C=CCN6CC[C@]43[C@@H]65)C2)C1`, the IC50 [1] is reported as 5 nM, the IC50 [2] is reported as 3.8 nM and the IC50 [3] is reported as 25 nM.

Work on `CC[C@]1(NS(=O)(=O)c2cccc([N+](=O)[O-])c2)C[C@H]2CN(CCc3c([nH]c4ccccc34)[C@@](C(=O)OC)(c3cc4c(cc3OC)N(C)[C@H]3[C@@](O)(C(=O)OC)[C@H](OC(C)=O)[C@]5(CC)C=CCN6CC[C@]43[C@@H]65)C2)C1` yielded an IC50 [1] of 450 nM, an IC50 [2] of 490 nM and an IC50 [3] of 430 nM.

For `CC[C@]1(NC(=O)c2ccc3scnc3c2)C[C@H]2CN(CCc3c([nH]c4ccccc34)[C@@](C(=O)OC)(c3cc4c(cc3OC)N(C)[C@H]3[C@@](O)(C(=O)OC)[C@H](OC(C)=O)[C@]5(CC)C=CCN6CC[C@]43[C@@H]65)C2)C1`, the IC50 [1] was 0.6 nM, the IC50 [2] was 0.7 nM and the IC50 [3] was 25 nM.

In the case of `CC[C@]1(NC(=O)c2ccc(OC(F)F)cc2)C[C@H]2CN(CCc3c([nH]c4ccccc34)[C@@](C(=O)OC)(c3cc4c(cc3OC)N(C)[C@H]3[C@@](O)(C(=O)OC)[C@H](OC(C)=O)[C@]5(CC)C=CCN6CC[C@]43[C@@H]65)C2)C1`, the IC50 [1] is reported as 5.9 nM, the IC50 [2] is reported as 1.7 nM and the IC50 [3] is reported as 17 nM.

In the case of `CC[C@]1(NC(=O)c2ccc(CNC(=O)OC(C)(C)C)cc2)C[C@H]2CN(CCc3c([nH]c4ccccc34)[C@@](C(=O)OC)(c3cc4c(cc3OC)N(C)[C@H]3[C@@](O)(C(=O)OC)[C@H](OC(C)=O)[C@]5(CC)C=CCN6CC[C@]43[C@@H]65)C2)C1`, the IC50 [1] is reported as 0.76 nM, the IC50 [2] is reported as 0.7 nM and the IC50 [3] is reported as 50 nM.

Compound `CC[C@]1(NC(=O)c2ccc(OCc3ccccc3)cc2)C[C@H]2CN(CCc3c([nH]c4ccccc34)[C@@](C(=O)OC)(c3cc4c(cc3OC)N(C)[C@H]3[C@@](O)(C(=O)OC)[C@H](OC(C)=O)[C@]5(CC)C=CCN6CC[C@]43[C@@H]65)C2)C1` has an IC50 [1] of 5.4 nM, an IC50 [2] of 5.7 nM and an IC50 [3] of 55 nM.

`CC[C@]1(NC(=O)/C=C/c2ccncc2)C[C@H]2CN(CCc3c([nH]c4ccccc34)[C@@](C(=O)OC)(c3cc4c(cc3OC)N(C)[C@H]3[C@@](O)(C(=O)OC)[C@H](OC(C)=O)[C@]5(CC)C=CCN6CC[C@]43[C@@H]65)C2)C1` gave an IC50 [1] of 0.6 nM, an IC50 [2] of 0.7 nM and an IC50 [3] of 50 nM.

In the case of `CC[C@]1(NC(=O)/C=C/c2ccccc2)C[C@H]2CN(CCc3c([nH]c4ccccc34)[C@@](C(=O)OC)(c3cc4c(cc3OC)N(C)[C@H]3[C@@](O)(C(=O)OC)[C@H](OC(C)=O)[C@]5(CC)C=CCN6CC[C@]43[C@@H]65)C2)C1`, the IC50 [1] is reported as 0.8 nM, the IC50 [2] is reported as 0.9 nM and the IC50 [3] is reported as 20 nM.

In the case of `CC[C@]1(NC(=O)C2CCNCC2)C[C@H]2CN(CCc3c([nH]c4ccccc34)[C@@](C(=O)OC)(c3cc4c(cc3OC)N(C)[C@H]3[C@@](O)(C(=O)OC)[C@H](OC(C)=O)[C@]5(CC)C=CCN6CC[C@]43[C@@H]65)C2)C1`, the IC50 [1] is reported as 4200 nM, the IC50 [2] is reported as > 10000 nM and the IC50 [3] is reported as > 10000 nM.

With `CC[C@]1(NC(=O)c2ccc(Br)c(Br)c2)C[C@H]2CN(CCc3c([nH]c4ccccc34)[C@@](C(=O)OC)(c3cc4c(cc3OC)N(C)[C@H]3[C@@](O)(C(=O)OC)[C@H](OC(C)=O)[C@]5(CC)C=CCN6CC[C@]43[C@@H]65)C2)C1` the IC50 [1] was 60 nM, the IC50 [2] was 40 nM and the IC50 [3] was 80 nM.

`CC[C@]1(NS(=O)(=O)c2ccc(OC)cc2)C[C@H]2CN(CCc3c([nH]c4ccccc34)[C@@](C(=O)OC)(c3cc4c(cc3OC)N(C)[C@H]3[C@@](O)(C(=O)OC)[C@H](OC(C)=O)[C@]5(CC)C=CCN6CC[C@]43[C@@H]65)C2)C1` gave an IC50 [1] of 35 nM, an IC50 [2] of 30 nM and an IC50 [3] of 240 nM.

Work on `CC[C@]1(NS(=O)(=O)c2ccc(C)cc2)C[C@H]2CN(CCc3c([nH]c4ccccc34)[C@@](C(=O)OC)(c3cc4c(cc3OC)N(C)[C@H]3[C@@](O)(C(=O)OC)[C@H](OC(C)=O)[C@]5(CC)C=CCN6CC[C@]43[C@@H]65)C2)C1` yielded an IC50 [1] of 40 nM, an IC50 [2] of 30 nM and an IC50 [3] of 330 nM.

With `CC[C@]1(NC(=O)c2cc(C)c(OC)c(C)c2)C[C@H]2CN(CCc3c([nH]c4ccccc34)[C@@](C(=O)OC)(c3cc4c(cc3OC)N(C)[C@H]3[C@@](O)(C(=O)OC)[C@H](OC(C)=O)[C@]5(CC)C=CCN6CC[C@]43[C@@H]65)C2)C1` the IC50 [1] was 0.5 nM, the IC50 [2] was 0.65 nM and the IC50 [3] was 3.5 nM.

`CC[C@]1(NC(=O)c2cccc(N3CCOCC3)c2)C[C@H]2CN(CCc3c([nH]c4ccccc34)[C@@](C(=O)OC)(c3cc4c(cc3OC)N(C)[C@H]3[C@@](O)(C(=O)OC)[C@H](OC(C)=O)[C@]5(CC)C=CCN6CC[C@]43[C@@H]65)C2)C1` gave an IC50 [1] of 4.8 nM, an IC50 [2] of 2.8 nM and an IC50 [3] of 30 nM.

With `CC[C@]1(NC(=O)c2ccc(Br)cc2)C[C@H]2CN(CCc3c([nH]c4ccccc34)[C@@](C(=O)OC)(c3cc4c(cc3OC)N(C)[C@H]3[C@@](O)(C(=O)OC)[C@H](OC(C)=O)[C@]5(CC)C=CCN6CC[C@]43[C@@H]65)C2)C1` the IC50 [1] was 2.7 nM, the IC50 [2] was 1.4 nM and the IC50 [3] was 10 nM.

Work on `CC[C@]1(NC(=O)c2ccc(OC(F)(F)F)cc2)C[C@H]2CN(CCc3c([nH]c4ccc(F)cc34)[C@@](C(=O)OC)(c3cc4c(cc3OC)N(C)[C@H]3[C@@](O)(C(=O)OC)[C@H](OC(C)=O)[C@]5(CC)C=CCN6CC[C@]43[C@@H]65)C2)C1` yielded an IC50 [1] of 0.6 nM, an IC50 [2] of 0.7 nM and an IC50 [3] of 1 nM.

Compound `CC[C@]1(NC(=O)c2ccco2)C[C@H]2CN(CCc3c([nH]c4ccccc34)[C@@](C(=O)OC)(c3cc4c(cc3OC)N(C)[C@H]3[C@@](O)(C(=O)OC)[C@H](OC(C)=O)[C@]5(CC)C=CCN6CC[C@]43[C@@H]65)C2)C1` has an IC50 [1] of 0.7 nM, an IC50 [2] of 0.7 nM and an IC50 [3] of 12 nM.

With `CC[C@]1(NC(=O)C2Cc3ccccc3C2)C[C@H]2CN(CCc3c([nH]c4ccccc34)[C@@](C(=O)OC)(c3cc4c(cc3OC)N(C)[C@H]3[C@@](O)(C(=O)OC)[C@H](OC(C)=O)[C@]5(CC)C=CCN6CC[C@]43[C@@H]65)C2)C1` the IC50 [1] was 30 nM, the IC50 [2] was 15 nM and the IC50 [3] was 80 nM.

In the case of `CC[C@]1(NC(=O)/C=C/c2ccco2)C[C@H]2CN(CCc3c([nH]c4ccccc34)[C@@](C(=O)OC)(c3cc4c(cc3OC)N(C)[C@H]3[C@@](O)(C(=O)OC)[C@H](OC(C)=O)[C@]5(CC)C=CCN6CC[C@]43[C@@H]65)C2)C1`, the IC50 [1] is reported as 1.3 nM, the IC50 [2] is reported as 1.3 nM and the IC50 [3] is reported as 30 nM.

`CC[C@]1(NC(=O)c2ccc(C)c(NC(C)=O)c2)C[C@H]2CN(CCc3c([nH]c4ccccc34)[C@@](C(=O)OC)(c3cc4c(cc3OC)N(C)[C@H]3[C@@](O)(C(=O)OC)[C@H](OC(C)=O)[C@]5(CC)C=CCN6CC[C@]43[C@@H]65)C2)C1` showed an IC50 [1] of 5.4 nM, an IC50 [2] of 4.3 nM and an IC50 [3] of 330 nM.

In the case of `CC[C@]1(NC(=O)c2ccc3ocnc3c2)C[C@H]2CN(CCc3c([nH]c4ccccc34)[C@@](C(=O)OC)(c3cc4c(cc3OC)N(C)[C@H]3[C@@](O)(C(=O)OC)[C@H](OC(C)=O)[C@]5(CC)C=CCN6CC[C@]43[C@@H]65)C2)C1`, the IC50 [1] is reported as 5.4 nM, the IC50 [2] is reported as 5.1 nM and the IC50 [3] is reported as 70 nM.

`CC[C@]1(NC(=O)c2ccc(NC(=O)OC(C)(C)C)cc2)C[C@H]2CN(CCc3c([nH]c4ccccc34)[C@@](C(=O)OC)(c3cc4c(cc3OC)N(C)[C@H]3[C@@](O)(C(=O)OC)[C@H](OC(C)=O)[C@]5(CC)C=CCN6CC[C@]43[C@@H]65)C2)C1` showed an IC50 [1] of 0.3 nM, an IC50 [2] of 0.3 nM and an IC50 [3] of 30 nM.

For `CC[C@]1(NC(=O)C2CCOCC2)C[C@H]2CN(CCc3c([nH]c4ccccc34)[C@@](C(=O)OC)(c3cc4c(cc3OC)N(C)[C@H]3[C@@](O)(C(=O)OC)[C@H](OC(C)=O)[C@]5(CC)C=CCN6CC[C@]43[C@@H]65)C2)C1`, the IC50 [1] was 70 nM, the IC50 [2] was 35 nM and the IC50 [3] was 3500 nM.

`CC[C@]1(NC(=O)c2ccc3cccnc3c2)C[C@H]2CN(CCc3c([nH]c4ccccc34)[C@@](C(=O)OC)(c3cc4c(cc3OC)N(C)[C@H]3[C@@](O)(C(=O)OC)[C@H](OC(C)=O)[C@]5(CC)C=CCN6CC[C@]43[C@@H]65)C2)C1` gave an IC50 [1] of 0.6 nM, an IC50 [2] of 0.7 nM and an IC50 [3] of 8.2 nM.

With `CC[C@]1(NS(=O)(=O)c2c(C)cc(C)cc2C)C[C@H]2CN(CCc3c([nH]c4ccccc34)[C@@](C(=O)OC)(c3cc4c(cc3OC)N(C)[C@H]3[C@@](O)(C(=O)OC)[C@H](OC(C)=O)[C@]5(CC)C=CCN6CC[C@]43[C@@H]65)C2)C1` the IC50 [1] was 500 nM, the IC50 [2] was 580 nM and the IC50 [3] was 710 nM.

For `CC[C@]1(NC(=O)c2ccc3c(c2)OCO3)C[C@H]2CN(CCc3c([nH]c4ccccc34)[C@@](C(=O)OC)(c3cc4c(cc3OC)N(C)[C@H]3[C@@](O)(C(=O)OC)[C@H](OC(C)=O)[C@]5(CC)C=CCN6CC[C@]43[C@@H]65)C2)C1`, the IC50 [1] was 0.6 nM, the IC50 [2] was 0.8 nM and the IC50 [3] was 8.7 nM.
